Data on twelve compounds can be found in patent US20220151890A1, “EFFICIENT SUNSCREEN COMPOSITIONS WITH DIETHYLAMINO HYDROXYBENZOYL HEXYL BENZOATE AND BUTYL METHOXYDIBENZOYLMETHANE” (BASF SE, priority 2019, published 2022).

A short description of data set [1]: Recovery measurements on photo stability of BMDBM (irradiated film on quartz plates, HPLC). It is filed as physicochemical. The settings on record: octocrylene free sunscreen composition. On the procedure:
Recovery measurements on photo stability of BMDBM
The sunscreen and UV filter compositions as defined above are applied on roughened quartz plates (2 μl/cm^2). Plates are irradiated using Atlas CPS device at different duration times (MED=Minimal Erythema Dose):
(§1) 0h (0 MED, no irradiation)
4h (20 MED). In total, four plates are prepared for each irradiation condition. After irradiation, each plate is rinsed off with tetrahydrofuran. The rinsing solution is further analyzed via HPLC to determine the recovery of BMDBM.

The conditions of data set [2]: description of the commercial UV filter; cited from earlier work.
A short description of data set [3]: UV filter performance: wavelength of maximum absorbance of DHHB in emollient. It is filed as physicochemical. To be noted: DHHB dissolved in the listed emollient; UV/Vis 290 to 400nm, 1 cm cuvette. On the procedure:
(§2) The wavelength of maximum absorbance (,max) is an indicator to describe the performance of a UV filter molecule. It gives the wavelength at which the absorbance is at maximum. […] The UV transmission spectrum of each UV filter - emollient mixture was measured from 290 to 400nm using a UV/Vis spectrophotometer Perkin Elmer Lambda 25. Three stock solutions with a concentration of 1mM of UV filter were prepared for each mixture. Further, three dilutions of each stock solution were prepared resulting in nine measurements in total per UV filter-emollient solution. Then, all solutions were filled in UV transparent quartz cuvette of 1 cm optical path-length for UV Transmission measurements.

The nature of data set [4]: UV filter performance: wavelength of maximum absorbance of BMDBM in emollient. In kind it is physicochemical. To be noted: BMDBM dissolved in the listed emollient; UV/Vis 290 to 400nm, 1 cm cuvette. The method, then:
as §2

A short description of data set [5]: Measurement of interfacial tension (polarity index) of emollients. It is filed as physicochemical. The settings on record: interfacial tension between emollient and water, Tensimat Densimat TD2000. From the text: The term “polarity index” refers to non-polar or polar oils. Non-polar oils are mainly based on hydrocarbons and lack an electronegative element, such as oxygen. In contrast, polar oils contain heteroatoms that differ in electronegativity, which results in a dipole moment. However, such oils are still insoluble in water, i.e. hydrophob. The polarity index can be determined by measuring the interfacial tension between the respective oil and water.
Measurement of interfacial tension (polarity index)
Interfacial tension of the respective emollients as listed below was measured using a Tensimat Densimat TD2000.

A short description of data set [6]: Recovery measurements on photo stability of BEMT (irradiated film on quartz plates, HPLC). In kind it is physicochemical. To be noted: presence of BMDBM in the composition. The method, then: Recovery measurements on photo stability of BEMT
The sunscreen and UV filter compositions as defined above are applied on roughened quartz plates (2 μl/cm^2). Plates are irradiated using Atlas CPS device at different duration times:
as §1
4h (20 MED). In total, four plates are prepared for each irradiation condition. After irradiation, each plate is rinsed off with tetrahydrofuran. The rinsing solution is further analyzed via HPLC to determine the recovery of BEMT.

Structures can show the parent of a compound that is named as a salt.

`CCCCCCOC(=O)c1ccccc1C(=O)c1ccc(N(CC)CC)cc1O` [DHHB, hexyl 2-[4-(diethylamino)-2-hydroxybenzoyl]benzoate]: in data set [1], the “effect on photo stability of BMDBM and BEMT, in words” value was “stabilizes the UV filter BMDBM and BEMT”. Also, the absorption maximum in data set [2] was 354 nm.

With `CCCCC(CC)COC(=O)c1ccc(Nc2nc(Nc3ccc(C(=O)NC(C)(C)C)cc3)nc(Nc3ccc(C(=O)OCC(CC)CCCC)cc3)n2)cc1` (stereo not drawn) [diethylhexyl-butamidotriazone, 4,4′-[[6-[[4-[[(1,1-dimethylethyl)amino]carbonyl]phenyl]amino]-1,3,5-triazin-2,4-diyl]diimino]bis-benzoic acid-bis(2-ethylhexyl)ester], in data set [2], the absorption maximum is 310 nm.

Regarding `CCCCOC(=O)CCCCC(=O)OCCCC` [dibutyl adipate], the “λmax values (DHHB)” value in data set [3] was determined as 351 nm.

As for `c1ccc(-c2ccc(-c3nc(-c4ccc(-c5ccccc5)cc4)nc(-c4ccc(-c5ccccc5)cc4)n3)cc2)cc1` [tris-biphenyl triazine, 2,4,6-Tris(biphenyl-4-yl)-1,3,5-triazine], in data set [2], the absorption maximum was 310 nm.

On to `CC(C)OC(=O)CCCCCCCCC(=O)OC(C)C` [diisopropyl sebacate], for which the “λmax values (DHHB)” value in data set [3] worked out at 350 nm. In addition, in data set [4], the “λmax values (BMDBM)” value is listed as 357 nm.

In the case of `CCCCOC(=O)CC(O)(CC(=O)OCCCC)C(=O)OCCCC` [tributyl citrate], the “λmax values (DHHB)” value in data set [3] is 352 nm. Moreover, the “λmax values (BMDBM)” value in data set [4] was found to be 359 nm. The polarity index in data set [5] was determined as 10 mN/m.

`CC(C)OC(=O)CCCCC(=O)OC(C)C` [diisopropyl adipate]: in data set [3], the “λmax values (DHHB)” value is 351 nm. Further, the “λmax values (BMDBM)” value in data set [4] is listed as 357 nm. Besides, the polarity index in data set [5] was determined as 12 mN/m.

As to `CCCCCCCCCCC(CO)CCCCCCCC` (stereo not drawn) [octyldodecanol], the “λmax values (DHHB)” value in data set [3] is given as 349 nm. For the same compound, the “λmax values (BMDBM)” value in data set [4] stood at 357 nm. The polarity index in data set [5] is 25 mN/m.

As for `CCOC(=O)CC(O)(CC(=O)OCC)C(=O)OCC` [triethyl citrate], the “λmax values (DHHB)” value in data set [3] was 353 nm. In addition, the “λmax values (BMDBM)” value in data set [4] is listed as 359 nm.

On to `O=C(OCCc1ccccc1)c1ccccc1` [phenethyl benzoate], for which the “λmax values (DHHB)” value in data set [3] was determined as 355 nm. Further, the “λmax values (BMDBM)” value in data set [4] is recorded as 362 nm. For the same compound, the polarity index in data set [5] is 19 mN/m.

For `CCCCCCCCCCCCCC(=O)OC(C)C` [isopropyl myristate], the “λmax values (BMDBM)” value in data set [4] was determined as 357 nm.

Consider `COc1ccc(C(=O)CC(=O)c2ccc(C(C)(C)C)cc2)cc1` [BMDBM, 1-(4-(1,1-dimethylethyl)phenyl)-3-(4-methoxyphenyl)propane-1,3-dione], for which, in data set [2], the absorption maximum is reported as 357 nm. The “effect on stability of BEMT, in words” value in data set [6] is “destabilizes the UV filter BEMT”.
